# Laboratory results: ChEMBL document CHEMBL1145065, “Thalidomide metabolites and analogues. 3. Synthesis and antiangiogenic activity of the teratogenic and TNFalpha-modulatory thalidomide analogue 2-(2,6-dioxopiperidine-3-yl)phthalimidine” (2003)
# Legend:
# Rattus norvegicus [1] = species on record: Rattus norvegicus; experiment: Inhibition of angiogenesis (new microvessel growth) in rat aortic ring model at 200 uM in Endothelial basal medium (EBM) and Dimethylsulfoxide (DMSO); assay type: functional; conditions: Aorta
# Rattus norvegicus [2] = species on record: Rattus norvegicus; experiment: Inhibition of angiogenesis (new microvessel growth) in rat aortic ring model at 100 uM in Endothelial basal medium (EBM) and Dimethylsulfoxide (DMSO); assay type: functional; conditions: Aorta
smiles,measurement,setting,value
O=C1CCC(N2Cc3ccccc3C2=O)C(=O)N1 (configuration not stated),inhibition at 200 µM,Rattus norvegicus [1],30%
same,inhibition at 100 µM,Rattus norvegicus [2],30%
